From ChEMBL document CHEMBL1201862, “PubChem BioAssay data set” (2004)
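Following 48 hours of exposure in 96-well plates, responses at five concentrations were used to interpolate endpoints linearly. Abbreviation: GI50, concentration required for 50% inhibition of growth.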 Active and inactive are the calls of the source. Rule as the data show it: active = GI50 up to about 1.1 µM and inactive = higher.

Columns and labels:
Test in all cases: growth of human tumour cells (NCI), 48 h
SW-620 = tested on: SW-620
SR = tested on: SR
EKVX = tested on: EKVX
HL-60 = tested on: HL-60
SN12C = tested on: SN12C
OVCAR-5 = tested on: OVCAR-5
NCI/ADR-RES = tested on: NCI/ADR-RES
MCF7 = tested on: MCF7
COLO 205 = tested on: COLO 205
HOP-62 = tested on: HOP-62
K562 = tested on: K562
SF-539 = tested on: SF-539
A498 = tested on: A498
SK-MEL-28 = tested on: SK-MEL-28
SK-MEL-2 = tested on: SK-MEL-2
UACC-62 = tested on: UACC-62
BT-549 = tested on: BT-549
MDA-MB-231 = tested on: MDA-MB-231
HT-29 = tested on: HT-29
HCC 2998 = tested on: HCC 2998

| SMILES | GI50 (SW-620) | GI50 (SR) | GI50 (EKVX) | GI50 (HL-60) | GI50 (SN12C) | GI50 (OVCAR-5) | GI50 (NCI/ADR-RES) | GI50 (MCF7) | GI50 (COLO 205) | GI50 (HOP-62) | GI50 (K562) | GI50 (SF-539) | GI50 (A498) | GI50 (SK-MEL-28) | GI50 (SK-MEL-2) | GI50 (UACC-62) | GI50 (BT-549) | GI50 (MDA-MB-231) | GI50 (HT-29) | GI50 (HCC 2998) |
| --- | --- | --- | --- | --- | --- | --- | --- | --- | --- | --- | --- | --- | --- | --- | --- | --- | --- | --- | --- | --- |
| COc1ccc(CNC(C)C(=O)O)cc1 (configuration not stated) | > 100 µM (inactive) | > 100000 nM (inactive) | > 100 µM (inactive) | > 100 µM (inactive) | > 100 µM (inactive) | > 100 µM (inactive) | > 100 µM (inactive) | > 100 µM (inactive) | > 100 µM (inactive) | > 100 µM (inactive) | > 100 µM (inactive) | > 100 µM (inactive) | > 100 µM (inactive) | > 100 µM (inactive) | > 100 µM (inactive) | > 100 µM (inactive) | > 100 µM (inactive) | > 100 µM (inactive) | > 100 µM (inactive) | – |
| C=Cc1cc(OC)c2c(c1)c(=O)oc1c2cc(OC)c2c(O)ccc(C3OC(C)C(O)C(C)(O)C3O)c21 (configuration not stated) | 0.0225 µM (active) | 0.00307 nM (active) | 0.0398 µM (active) | 0.0225 µM (active) | 0.0303 µM (active) | 0.0397 µM (active) | 0.0344 µM (active) | 0.0225 µM (active) | – | 0.0225 µM (active) | 0.0306 µM (active) | 0.0295 µM (active) | 0.0444 µM (active) | – | 0.0294 µM (active) | 0.0317 µM (active) | 0.00183 µM (active) | 0.00345 µM (active) | 0.0341 µM (active) | 0.0493 µM (active) |
| O=[N+]([O-])c1ccc(NN=C2c3ccccc3Cc3ccccc32)c([N+](=O)[O-])c1 | 5.85 µM (inactive) | 2070 nM (inactive) | 5.37 µM (inactive) | – | > 67.5 µM (inactive) | 12.3 µM (inactive) | 4.82 µM (inactive) | 4.23 µM (inactive) | 4.52 µM (inactive) | 6.92 µM (inactive) | 4.32 µM (inactive) | 8.79 µM (inactive) | > 92 µM (inactive) | > 81.1 µM (inactive) | 3.44 µM (inactive) | 5.38 µM (inactive) | > 100 µM (inactive) | 24.4 µM (inactive) | 2.88 µM (inactive) | 6.41 µM (inactive) |
| COC(=O)C#CC1(O)C=CC(=O)C=C1 | 0.299 µM (active) | 51.9 nM (active) | 4.12 µM (inactive) | – | 0.789 µM (active) | 1.42 µM (inactive) | 0.525 µM (active) | 0.352 µM (active) | 2.41 µM (inactive) | 4.72 µM (inactive) | 0.392 µM (active) | 1.12 µM (active) | 34 µM (inactive) | 0.579 µM (active) | 2.36 µM (inactive) | 0.865 µM (active) | 1.01 µM (active) | 2 µM (inactive) | 0.253 µM (active) | 2.54 µM (inactive) |
| CCC(O)(Cc1ccc(OC)cc1)c1ccc(OC)cc1 (configuration not stated) | > 100 µM (inactive) | 64.1 nM (active) | > 100 µM (inactive) | > 100 µM (inactive) | > 100 µM (inactive) | > 100 µM (inactive) | > 100 µM (inactive) | > 100 µM (inactive) | > 100 µM (inactive) | > 100 µM (inactive) | > 100 µM (inactive) | > 100 µM (inactive) | > 100 µM (inactive) | – | > 100 µM (inactive) | > 100 µM (inactive) | > 100 µM (inactive) | > 100 µM (inactive) | > 100 µM (inactive) | > 100 µM (inactive) |
| CNc1nc2n(CCO)c(-c3ccccc3)c(-c3ccccc3)nc-2c(=O)n1 | > 50 µM (inactive) | > 50000 nM (inactive) | > 50 µM (inactive) | – | > 50 µM (inactive) | > 50 µM (inactive) | > 50 µM (inactive) | > 50 µM (inactive) | > 50 µM (inactive) | 22.8 µM (inactive) | > 50 µM (inactive) | > 50 µM (inactive) | > 50 µM (inactive) | > 50 µM (inactive) | > 50 µM (inactive) | > 50 µM (inactive) | > 50 µM (inactive) | > 50 µM (inactive) | > 50 µM (inactive) | > 50 µM (inactive) |
| CCCCOC(=O)NC(c1ccccc1)C(O)C(=O)OC1C[C@@]2(O)C(OC(=O)c3ccccc3)C3[C@](C)(C(=O)[C@H](OC(C)=O)C(=C1C)C2(C)C)[C@@H](O)C[C@H]1OC[C@@]31OC(C)=O (some centres not stated) | 0.00627 µM (active) | 4.99 nM (active) | 0.0741 µM (active) | 0.00345 µM (active) | 0.0157 µM (active) | 0.015 µM (active) | 2 µM (inactive) | 0.00248 µM (active) | 0.00652 µM (active) | 0.0239 µM (active) | 0.00447 µM (active) | 0.00305 µM (active) | 0.0056 µM (active) | – | 0.00773 µM (active) | 0.0134 µM (active) | 0.0148 µM (active) | 0.034 µM (active) | 0.00228 µM (active) | 0.011 µM (active) |
